Assay results as given in patent US11459318B2, “Pesticidally active pyrrole derivatives” (Syngenta Participations AG, priority 2017, dated 2022).

Assays:
Assay type in all cases: in vivo
[1] = system: Spodoptera littoralis (Egyptian cotton leaf worm); assay: Spodoptera littoralis (Egyptian cotton leaf worm): Feeding/contact activity; conditions: foliar, 72 h, application rate of 200 ppm, L1 larvae on cotton leaf discs, assessed 3 days after infestation, read-out: control (mortality)
Description: Spodoptera littoralis (Egyptian cotton leaf worm): Feeding/contact activity Cotton leaf discs were placed onto agar in 24-well microtiter plates and sprayed with aqueous test solutions prepared from 10,000 ppm DMSO stock solutions. After drying the leaf discs were infested with five L1 larvae. The samples were assessed for mortality 3 days after infestation.

[2] = system: Tetranychus urticae (Two-spotted spider mite); assay: Tetranychus urticae (Two-spotted spider mite): Feeding/contact activity; conditions: foliar, 192 h, application rate of 200 ppm, mite population of mixed ages (mobile stages) on bean leaf discs, assessed 8 days after infestation, read-out: control (mortality)
Description: Tetranychus urticae (Two-spotted spider mite): Feeding/contact activity
Bean leaf discs on agar in 24-well microtiter plates were sprayed with aqueous test solutions prepared from 10,000 ppm DMSO stock solutions. After drying the leaf discs were infested with a mite population of mixed ages. The samples were assessed for mortality on mixed population (mobile stages) 8 days after infestation.

[3] = system: Myzus persicae (Green peach aphid); assay: Myzus persicae (Green peach aphid): Feeding/Contact activity; conditions: foliar, 144 h, application rate of 200 ppm, aphid population of mixed ages on sunflower leaf discs, assessed 6 days after infestation, read-out: control (mortality)
Description: Myzus persicae (Green peach aphid): Feeding/Contact activity Sunflower leaf discs were placed onto agar in a 24-well microtiter plate and sprayed with aqueous test solutions prepared from 10,000 ppm DMSO stock solutions. After drying, the leaf discs were infested with an aphid population of mixed ages. The samples were assessed for mortality 6 days after infestation.

[4] = system: Euschistus heros (Neotropical Brown Stink Bug); assay: Euschistus heros (Neotropical Brown Stink Bug): Feeding/contact activity; conditions: 120 h, application rate of 200 ppm, N2 nymphs on soybean leaves, assessed 5 days after infestation, read-out: control (mortality)
Description: Euschistus heros (Neotropical Brown Stink Bug): Feeding/contact activity Soybean leaves on agar in 24-well microtiter plates were sprayed with aqueous test solutions prepared from 10,000 ppm DMSO stock solutions. After drying the leaves were infested with N2 nymphs. The samples were assessed for mortality 5 days after infestation.

[5] = system: Diabrotica balteata (Corn root worm); assay: Diabrotica balteata (Corn root worm), maize sprouts sprayed, L2 larvae mortality; conditions: 96 h, application rate of 200 ppm, L2 larvae on maize sprouts, assessed 4 days after infestation, read-out: control (mortality)
Description: Diabrotica balteata (Corn root worm):
Maize sprouts placed onto an agar layer in 24-well microtiter plates were treated with aqueous test solutions prepared from 10,000 ppm DMSO stock solutions by spraying. After drying, the plates were infested with L2 larvae (6 to 10 per well). The samples were assessed for mortality 4 days after infestation.

[6] = system: Plutella xylostella (Diamond back moth); assay: Plutella xylostella (Diamond back moth): Feeding/contact activity; conditions: 120 h, application rate of 200 ppm, L2 larvae on artificial diet, assessed 5 days after infestation, read-out: control (mortality)
Description: Plutella xylostella (Diamond back moth): Feeding/contact activity
24-well microtiter plates with artificial diet were treated with aqueous test solutions prepared from 10,000 ppm DMSO stock solutions by pipetting. After drying, the plates were infested with L2 larvae (10 to 15 per well). The samples were assessed for mortality 5 days after infestation.

[7] = system: Thrips tabaci (Onion Thrips); assay: Thrips tabaci (Onion Thrips): Feeding/Contact activity; conditions: foliar, 144 h, application rate of 200 ppm, thrips population of mixed ages on sunflower leaf discs, assessed 6 days after infestation, read-out: control (mortality)
Description: Thrips tabaci (Onion Thrips): Feeding/Contact activity
Sunflower leaf discs were placed on agar in 24-well microtiter plates and sprayed with aqueous test solutions prepared from 10,000 ppm DMSO stock solutions. After drying the leaf discs were infested with a thrips population of mixed ages. The samples were assessed for mortality 6 days after infestation.

Measured: mortality at 200 ppm

N#CC1(NC(=O)c2cc(-c3cnn(-c4c(Br)cc(C(F)(C(F)(F)F)C(F)(F)F)n4CF)c3)ccc2Cl)CC1 [Compound 12, 5-[1-[3-bromo-1-(fluoromethyl)-5-[1,2,2,2-tetrafluoro-1-(trifluoromethyl)ethyl]pyrrol-2-yl]pyrazol-4-yl]-2-chloro-N-(1-cyanocyclopropyl)benzamide]
≥ 80%: all assays above

CCN(C(=O)c1cc(-c2cnn(-c3c(Br)cc(C(F)(C(F)(F)F)C(F)(F)F)n3C)c2)ccc1Cl)C1(C#N)CC1 [Compound 20, 5-[1-[3-bromo-1-methyl-5-[1,2,2,2-tetrafluoro-1-(trifluoromethyl)ethyl]pyrrol-2-yl]pyrazol-4-yl]-2-chloro-N-(1-cyanocyclopropyl)-N-ethyl-benzamide]
≥ 80%: all assays above

CN(C(=O)c1cc(-c2cnn(-c3c(Br)cc(C(F)(C(F)(F)F)C(F)(F)F)n3C)c2)ccc1Cl)C1(C#N)CC1 [Compound 21, 5-[1-[3-bromo-1-methyl-5-[1,2,2,2-tetrafluoro-1-(trifluoromethyl)ethyl]pyrrol-2-yl]pyrazol-4-yl]-2-chloro-N-(1-cyanocyclopropyl)-N-methyl-benzamide]
≥ 80%: all assays above

CC(C)n1c(C(F)(C(F)(F)F)C(F)(F)F)cc(Br)c1-n1cc(-c2ccc(Cl)c(C(=O)NC3(C#N)CC3)c2)cn1 [Compound 24, 5-[1-[3-bromo-1-isopropyl-5-[1,2,2,2-tetrafluoro-1-(trifluoromethyl)ethyl]pyrrol-2-yl]pyrazol-4-yl]-2-chloro-N-(1-cyanocyclopropyl)benzamide]
≥ 80%: all assays above

CC(C)(C)n1c(C(F)(C(F)(F)F)C(F)(F)F)cc(Br)c1-n1cc(-c2ccc(Cl)c(C(=O)NC3(C#N)CC3)c2)cn1 [Compound 25, 5-[1-[3-bromo-1-tert-butyl-5-[1,2,2,2-tetrafluoro-1-(trifluoromethyl)ethyl]pyrrol-2-yl]pyrazol-4-yl]-2-chloro-N-(1-cyanocyclopropyl)benzamide]
≥ 80%: all assays above

N#CC1(NC(=O)c2cc(-c3cnn(-c4c(Br)cc(C(F)(C(F)(F)F)C(F)(F)F)n4CC(F)(F)F)c3)ccc2Cl)CC1 [Compound 26, 5-[1-[3-bromo-5-[1,2,2,2-tetrafluoro-1-(trifluoromethyl)ethyl]-1-(2,2,2-trifluoroethyl)pyrrol-2-yl]pyrazol-4-yl]-2-chloro-N-(1-cyanocyclopropyl)benzamide]
≥ 80%: all assays above

Cn1c(C(F)(C(F)(F)F)C(F)(F)C(F)(F)F)cc(Br)c1-n1cc(-c2ccc(Cl)c(C(=O)NC3(C#N)CC3)c2)cn1 (stereo not shown) [Compound 27, 5-[1-[3-bromo-5-[1,2,2,3,3,3-hexafluoro-1-(trifluoromethyl)propyl]-1-methyl-pyrrol-2-yl]pyrazol-4-yl]-2-chloro-N-(1-cyanocyclopropyl)benzamide]
≥ 80%: all assays above

Cn1c(-n2cc(-c3ccc(Cl)c(C(=O)NC4(C#N)CC4)c3)cn2)ccc1C(F)(C(F)(F)F)C(F)(F)C(F)(F)F (stereo not shown) [Compound 28, 2-chloro-N-(1-cyanocyclopropyl)-5-[1-[5-[1,2,2,3,3,3-hexafluoro-1-(trifluoromethyl)propyl]-1-methyl-pyrrol-2-yl]pyrazol-4-yl]benzamide]
≥ 80%: all assays above

N#CC1(NC(=O)c2cc(-c3cnn(-c4c(Cl)cc(C(F)(C(F)(F)F)C(F)(F)F)n4CF)c3)ccc2Cl)CC1 [Compound 29, 2-chloro-5-[1-[3-chloro-1-(fluoromethyl)-5-[1,2,2,2-tetrafluoro-1-(trifluoromethyl)ethyl]pyrrol-2-yl]pyrazol-4-yl]-N-(1-cyanocyclopropyl)benzamide]
≥ 80%: all assays above

N#CC1(NC(=O)c2cc(-c3cnn(-c4c(Br)cc(C(F)(C(F)(F)F)C(F)(F)F)n4C4CC4)c3)ccc2Cl)CC1 [Compound 42, 5-[1-[3-bromo-1-cyclopropyl-5-[1,2,2,2-tetrafluoro-1-(trifluoromethyl)ethyl]pyrrol-2-yl]pyrazol-4-yl]-2-chloro-N-(1-cyanocyclopropyl)benzamide]
≥ 80%: all assays above
